In brackets after ≈: the same amount, converted by molar mass.
How the values were obtained:
[1] = molecular target: T1, Free fatty acid receptor 1 (Homo sapiens, UniProt O14842); experiment: Agonist activity at GPR40 (unknown origin) expressed in CHO cells at 5 uM by FLIPR calcium flux assay relative to GW9508; type: functional, cell-based
[2] = molecular target: T1, Free fatty acid receptor 1; experiment: Agonist activity at GPR40 (unknown origin) expressed in CHO cells by FLIPR calcium flux assay in presence of 0.1% bovine serum albumin; type: functional, cell-based
CYP2C19 [3] = molecular target: T2, CYP2C19 (Homo sapiens, UniProt P33261); experiment: Inhibition of CYP2C19 (unknown origin) at 24 uM by luminescent readout-based method; type: ADME
T2 sequence (P33261 whole entry): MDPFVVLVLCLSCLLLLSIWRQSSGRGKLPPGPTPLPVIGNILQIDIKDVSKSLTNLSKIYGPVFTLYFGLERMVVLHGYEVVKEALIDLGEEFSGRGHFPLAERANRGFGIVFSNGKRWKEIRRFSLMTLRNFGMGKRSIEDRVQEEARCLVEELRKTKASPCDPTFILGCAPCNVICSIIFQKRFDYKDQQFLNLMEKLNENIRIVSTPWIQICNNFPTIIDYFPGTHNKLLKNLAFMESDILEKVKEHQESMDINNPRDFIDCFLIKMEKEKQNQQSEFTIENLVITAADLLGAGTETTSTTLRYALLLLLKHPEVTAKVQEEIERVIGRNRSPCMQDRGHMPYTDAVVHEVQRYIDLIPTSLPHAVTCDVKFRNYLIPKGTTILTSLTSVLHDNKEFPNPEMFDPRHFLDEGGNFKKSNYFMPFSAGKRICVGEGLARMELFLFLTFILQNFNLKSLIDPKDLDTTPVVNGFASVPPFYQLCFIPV

CYP2D6 [4] = molecular target: T3, CYP2D6 (Homo sapiens, UniProt P10635); experiment: Inhibition of CYP2D6 (unknown origin) at 5 uM by luminescent readout-based method; type: ADME
T3 sequence (P10635 whole entry): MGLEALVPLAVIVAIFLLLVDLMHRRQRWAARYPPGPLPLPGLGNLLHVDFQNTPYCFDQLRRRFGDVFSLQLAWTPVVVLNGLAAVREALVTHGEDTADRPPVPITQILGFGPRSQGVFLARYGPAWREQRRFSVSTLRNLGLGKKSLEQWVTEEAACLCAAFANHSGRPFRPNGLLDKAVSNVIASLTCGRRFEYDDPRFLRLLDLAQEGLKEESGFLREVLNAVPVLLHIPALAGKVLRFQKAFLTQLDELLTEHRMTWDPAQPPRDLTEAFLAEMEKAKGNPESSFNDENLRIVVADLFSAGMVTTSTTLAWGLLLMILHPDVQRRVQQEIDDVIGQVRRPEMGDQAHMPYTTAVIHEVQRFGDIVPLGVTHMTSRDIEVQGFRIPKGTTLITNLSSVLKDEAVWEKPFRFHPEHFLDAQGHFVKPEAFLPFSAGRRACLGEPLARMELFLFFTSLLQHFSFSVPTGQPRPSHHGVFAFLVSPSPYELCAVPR

[5] = molecular target: T4, Free fatty acid receptor 3 (Homo sapiens, UniProt O14843); experiment: Agonist activity at GPR41 (unknown origin) expressed in CHO cells by FLIPR calcium flux assay in presence of 0.1% bovine serum albumin; type: functional, cell-based
T4 sequence (O14843 whole entry): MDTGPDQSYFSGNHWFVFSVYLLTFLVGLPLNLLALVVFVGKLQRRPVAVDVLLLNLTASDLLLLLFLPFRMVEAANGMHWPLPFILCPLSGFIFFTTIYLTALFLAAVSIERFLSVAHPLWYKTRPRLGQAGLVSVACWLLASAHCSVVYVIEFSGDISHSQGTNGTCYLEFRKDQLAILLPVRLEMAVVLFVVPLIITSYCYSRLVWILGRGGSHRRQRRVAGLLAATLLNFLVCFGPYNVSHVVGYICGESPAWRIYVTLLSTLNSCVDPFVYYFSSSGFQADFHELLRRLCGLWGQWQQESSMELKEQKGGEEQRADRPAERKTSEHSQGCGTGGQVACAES

[6] = Apparent permeability from apical to basolateral side in human Caco2 cells assessed […] at 10 uM by HPLC-MS analysis; type: ADME, cell-based; conditions: Caco-2
CYP1A2 = molecular target: T5, CYP1A2 (Homo sapiens, UniProt P05177); experiment: Inhibition of CYP1A2 (unknown origin) at 5 uM by luminescent readout-based method; type: ADME
T5 sequence (P05177 whole entry): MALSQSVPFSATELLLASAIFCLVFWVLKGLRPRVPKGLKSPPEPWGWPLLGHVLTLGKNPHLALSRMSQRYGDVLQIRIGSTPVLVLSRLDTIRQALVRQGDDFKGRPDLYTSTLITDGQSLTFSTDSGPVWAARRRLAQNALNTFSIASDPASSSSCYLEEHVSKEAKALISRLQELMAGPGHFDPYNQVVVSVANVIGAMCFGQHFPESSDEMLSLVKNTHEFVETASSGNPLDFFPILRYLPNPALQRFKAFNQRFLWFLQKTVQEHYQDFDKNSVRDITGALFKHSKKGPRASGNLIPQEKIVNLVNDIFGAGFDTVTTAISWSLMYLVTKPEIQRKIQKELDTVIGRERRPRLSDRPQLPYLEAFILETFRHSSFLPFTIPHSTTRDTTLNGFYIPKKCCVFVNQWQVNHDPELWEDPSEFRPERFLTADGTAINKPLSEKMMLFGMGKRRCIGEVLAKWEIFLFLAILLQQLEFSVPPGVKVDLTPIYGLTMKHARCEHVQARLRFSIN

[7] = Half life in BALB/c mouse liver microsomes at 2 uM by HPLC-MS analysis; type: ADME
[8] = molecular target: T6, Free fatty acid receptor 2 (Homo sapiens, UniProt O15552); experiment: Agonist activity at GPR43 (unknown origin) expressed in CHO cells by FLIPR calcium flux assay in presence of 0.1% bovine serum albumin; type: functional, cell-based
T6 sequence (O15552 whole entry): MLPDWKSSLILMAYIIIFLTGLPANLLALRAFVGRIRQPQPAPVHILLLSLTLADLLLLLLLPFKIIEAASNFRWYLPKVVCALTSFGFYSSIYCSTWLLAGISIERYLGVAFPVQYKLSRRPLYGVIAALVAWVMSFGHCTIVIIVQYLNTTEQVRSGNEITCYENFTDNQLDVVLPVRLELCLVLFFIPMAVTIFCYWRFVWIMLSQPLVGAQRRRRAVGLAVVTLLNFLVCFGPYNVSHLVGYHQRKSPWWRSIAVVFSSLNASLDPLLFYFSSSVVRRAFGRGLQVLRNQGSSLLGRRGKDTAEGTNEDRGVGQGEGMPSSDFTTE

CYP2C9 [9] = molecular target: T7, CYP2C9 (Homo sapiens, UniProt P11712); experiment: Inhibition of CYP2C9 (unknown origin) at 5 uM by luminescent readout-based method; type: ADME
T7 sequence (P11712 whole entry): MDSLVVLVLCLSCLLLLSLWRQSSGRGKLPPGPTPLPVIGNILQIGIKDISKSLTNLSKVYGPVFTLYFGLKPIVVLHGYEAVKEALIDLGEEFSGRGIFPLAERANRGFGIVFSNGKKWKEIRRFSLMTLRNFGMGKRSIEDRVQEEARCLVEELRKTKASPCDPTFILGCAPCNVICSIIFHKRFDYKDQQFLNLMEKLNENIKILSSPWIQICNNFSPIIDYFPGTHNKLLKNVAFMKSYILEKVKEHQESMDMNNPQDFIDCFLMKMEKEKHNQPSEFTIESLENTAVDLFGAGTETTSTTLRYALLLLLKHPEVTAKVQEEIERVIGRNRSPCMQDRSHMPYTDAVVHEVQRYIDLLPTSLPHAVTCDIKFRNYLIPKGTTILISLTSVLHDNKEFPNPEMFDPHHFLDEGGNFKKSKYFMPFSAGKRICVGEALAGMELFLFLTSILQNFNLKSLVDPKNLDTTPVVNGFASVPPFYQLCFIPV

CYP3A4 = CYP3A4 (Homo sapiens, UniProt P08684); experiment: Inhibition of CYP3A4 (unknown origin) at 5 uM by luminescent readout-based method; type: ADME
Chain of CYP3A4 (P08684 whole entry): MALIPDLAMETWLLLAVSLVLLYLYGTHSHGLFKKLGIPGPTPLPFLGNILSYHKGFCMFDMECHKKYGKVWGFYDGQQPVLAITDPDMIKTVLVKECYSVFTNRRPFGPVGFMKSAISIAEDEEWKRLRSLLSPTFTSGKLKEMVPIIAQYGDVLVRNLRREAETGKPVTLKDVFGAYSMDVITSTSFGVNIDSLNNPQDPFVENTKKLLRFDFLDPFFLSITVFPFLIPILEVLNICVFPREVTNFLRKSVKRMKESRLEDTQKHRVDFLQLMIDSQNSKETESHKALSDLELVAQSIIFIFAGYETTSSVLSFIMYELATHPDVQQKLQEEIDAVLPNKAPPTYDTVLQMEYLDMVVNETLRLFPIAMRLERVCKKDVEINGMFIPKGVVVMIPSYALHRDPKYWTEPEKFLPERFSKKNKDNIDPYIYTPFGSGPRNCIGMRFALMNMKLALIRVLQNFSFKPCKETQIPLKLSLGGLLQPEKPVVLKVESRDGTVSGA

[10] = Kinetic solubility of the compound in phosphate-buffered saline at pH 7.4 by filter microplate technique; type: physicochemical; conditions: read-out: Kinetic_solubility
[11] = molecular target: T8, Free fatty acid receptor 4 (Homo sapiens, UniProt Q5NUL3); experiment: Agonist activity at GPR120 (unknown origin) expressed in CHO cells by FLIPR calcium flux assay in presence of 0.1% bovine serum albumin; type: functional, cell-based
T8 sequence (Q5NUL3 whole entry): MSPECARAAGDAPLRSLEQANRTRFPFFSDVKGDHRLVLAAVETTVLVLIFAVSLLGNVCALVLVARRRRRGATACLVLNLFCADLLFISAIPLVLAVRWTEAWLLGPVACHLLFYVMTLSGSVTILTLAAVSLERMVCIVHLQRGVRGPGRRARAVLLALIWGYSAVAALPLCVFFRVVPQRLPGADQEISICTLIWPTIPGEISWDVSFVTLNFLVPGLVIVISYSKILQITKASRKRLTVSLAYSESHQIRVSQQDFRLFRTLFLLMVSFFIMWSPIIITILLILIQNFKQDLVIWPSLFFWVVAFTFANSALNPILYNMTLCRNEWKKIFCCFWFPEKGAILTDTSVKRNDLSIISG

CYP2C19 [12] = molecular target: T2, CYP2C19; experiment: Inhibition of CYP2C19 (unknown origin) at 5 uM by luminescent readout-based method; type: ADME
[13] = Plasma protein binding in human at 1 uM after 5 hrs by HPLC-MS/MS analysis; type: ADME, cell-free; conditions: read-out: PPB (converted)
CYP2D6 [14] = molecular target: T3, CYP2D6; experiment: Inhibition of CYP2D6 (unknown origin) at 1 uM by luminescent readout-based method
CYP2C9 [15] = molecular target: T7, CYP2C9; experiment: Inhibition of CYP2C9 (unknown origin) at 120 uM by luminescent readout-based method; type: ADME

T1 sequence (O14842 whole entry): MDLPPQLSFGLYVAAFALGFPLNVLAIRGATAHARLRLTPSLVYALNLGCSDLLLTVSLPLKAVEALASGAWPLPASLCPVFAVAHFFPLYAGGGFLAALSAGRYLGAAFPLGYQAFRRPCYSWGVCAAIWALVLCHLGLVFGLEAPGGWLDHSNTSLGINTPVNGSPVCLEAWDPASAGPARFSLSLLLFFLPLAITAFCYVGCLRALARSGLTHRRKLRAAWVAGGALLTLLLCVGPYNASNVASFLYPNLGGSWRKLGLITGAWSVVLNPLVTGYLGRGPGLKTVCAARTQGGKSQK

SMILES: O=C(O)CCc1ccc(OCc2coc(-c3cccc(Cl)c3)n2)cc1
- Efficacy [1]: 106%
- EC50 [2]: 160 nM

SMILES: O=C(O)CCc1ccc(OCc2ncc(-c3ccccc3)o2)cc1
- Efficacy [1]: 58%
- EC50 [2]: 1600 nM

SMILES: O=C(O)CCc1ccc(OCc2nc(-c3cccc(C(F)(F)F)c3)no2)c(Cl)c1
- Efficacy [1]: 22%
- EC50 [2]: 30100 nM

SMILES: O=C(O)CCc1ccc(OCc2nc(-c3ccccc3Cl)no2)cc1
- Efficacy [1]: 61%
- EC50 [2]: 1200 nM

SMILES: O=C(O)CCc1ccc(OCc2nc(-c3ccccc3)no2)cc1
- Efficacy [1]: 65%
- EC50 [2]: 1130 nM

SMILES: CC(Oc1ccc(CCC(=O)O)cc1)c1nc(-c2ccccc2)no1 (stereo unspecified)
- Efficacy [1]: 109%
- EC50 [2]: 2390 nM

SMILES: Cc1cc(-c2noc(COc3ccc(CCC(=O)O)cc3)n2)ccc1F
- Efficacy [1]: 75%
- EC50 [2]: 2120 nM

SMILES: COc1cccc(-c2noc(COc3ccc(CCC(=O)O)cc3)n2)c1
- Efficacy [1]: 81%
- EC50 [2]: 2670 nM

SMILES: COc1ccc2[nH]c([S+]([O-])Cc3ncc(C)c(OC)c3C)nc2c1 (stereo unspecified) [OMEPRAZOLE]
- inhibition at 24 µM (CYP2C19 [3]): 93.4%

SMILES: O=C(O)CCc1ccc(OCc2noc(-c3ccccc3)n2)cc1
- Efficacy [1]: 42%
- EC50 [2]: 2650 nM

SMILES: COc1cccc(-c2noc(COc3ccc(CCC(=O)O)cc3Cl)n2)c1
- Efficacy [1]: 88%
- EC50 [2]: 3000 nM

SMILES: Cc1oc(-c2ccccc2)nc1COc1ccc(CCC(=O)O)cc1
- inhibition at 5 µM (CYP2D6 [4]): 17.7%
- EC50 [5]: > 10000 nM
- Papp A→B at 10 µM [6]: 15.2 ×10⁻⁶ cm/s
- inhibition at 5 µM (CYP1A2): 8.9%
- half-life at 2 µM [7]: 7.23 h
- EC50 [8]: > 10000 nM
- inhibition at 5 µM (CYP2C9 [9]): 10.8%
- inhibition at 5 µM (CYP3A4): 36.2%
- solubility kinetic [10]: 404 µM (≈ 136 µg/mL)
- EC50 [11]: > 10000 nM
- inhibition at 5 µM (CYP2C19 [12]): 23.6%
- Efficacy [1]: 103%
- EC50 [2]: 58 nM
- fraction unbound at 5 h, 1 µM [13]: 0.014

SMILES: O=C(O)CCc1ccc(OCc2ncc(-c3cccc(Cl)c3)o2)cc1
- Efficacy [1]: 30%
- EC50 [2]: 47500 nM

SMILES: CC(Oc1ccc(CCC(=O)O)cc1)c1nc(-c2ccc(Cl)cc2)no1 (stereo unspecified)
- Efficacy [1]: 68%
- EC50 [2]: 500 nM

SMILES: O=C(O)CCc1ccc(OCc2coc(-c3cccc(F)c3)n2)cc1
- Efficacy [1]: 99%
- EC50 [2]: 560 nM

SMILES: C=C[C@H]1C[N@@]2CC[C@H]1C[C@@H]2[C@@H](O)c1ccnc2ccc(OC)cc12 [QUINIDINE]
- inhibition at 1 µM (CYP2D6 [14]): 96.2%

SMILES: O=C(O)CCc1ccc(OCc2nc(-c3cccs3)no2)cc1
- Efficacy [1]: 59%
- EC50 [2]: 2570 nM

SMILES: O=C(O)CCc1ccc(OCc2nc(-c3cccc(Br)c3)no2)cc1
- Efficacy [1]: 130%
- EC50 [2]: 1260 nM

SMILES: O=C(O)CCc1ccc(OCc2nc(-c3ccco3)no2)cc1
- EC50 [2]: > 100000 nM

SMILES: Cc1ccc(-c2noc(COc3ccc(CCC(=O)O)cc3)n2)cc1
- inhibition at 5 µM (CYP2D6 [4]): -8.3%
- EC50 [5]: > 10000 nM
- Papp A→B at 10 µM [6]: 27.3 ×10⁻⁶ cm/s
- inhibition at 5 µM (CYP1A2): 13.6%
- half-life at 2 µM [7]: 6.22 h
- EC50 [8]: > 10000 nM
- inhibition at 5 µM (CYP2C9 [9]): 4.26%
- inhibition at 5 µM (CYP3A4): 29.2%
- solubility kinetic [10]: 334 µM (≈ 113 µg/mL)
- EC50 [11]: > 10000 nM
- inhibition at 5 µM (CYP2C19 [12]): 20.6%
- Efficacy [1]: 99%
- EC50 [2]: 300 nM
- fraction unbound at 5 h, 1 µM [13]: 0.015

SMILES: CCc1ccc(-c2noc(COc3ccc(CCC(=O)O)cc3)n2)cc1
- Efficacy [1]: 106%
- EC50 [2]: 210 nM

SMILES: O=C(O)CCc1ccc(OCc2nc(-c3ccccc3)no2)c(Cl)c1
- Efficacy [1]: 95%
- EC50 [2]: 13100 nM

SMILES: Cc1cccc(-c2noc(COc3ccc(CCC(=O)O)cc3Cl)n2)c1
- Efficacy [1]: 54%
- EC50 [2]: 4580 nM

SMILES: OC(Cn1cncn1)(Cn1cncn1)c1ccc(F)cc1F [FLUCONAZOLE]
- inhibition at 120 µM (CYP2C9 [15]): 89.1%

SMILES: O=C(O)Cc1ccc(OCc2nc(-c3cccc(Cl)c3)no2)cc1
- Efficacy [1]: 69%
- EC50 [2]: 18800 nM

SMILES: O=C(O)CCc1ccc(OCc2nc(-c3cccc(C(F)(F)F)c3)no2)cc1
- Efficacy [1]: 65%
- EC50 [2]: 1110 nM

SMILES: O=C(O)CCc1ccc(OCc2nc(-c3ccc(C(F)(F)F)cc3)no2)cc1
- Efficacy [1]: 73%
- EC50 [2]: 610 nM

SMILES: O=C(O)CCc1ccc(OCc2ncc(-c3cccc(F)c3)o2)cc1
- Efficacy [1]: 81%
- EC50 [2]: 1070 nM

SMILES: CC(Oc1ccc(CCC(=O)O)cc1)c1nc(-c2cccs2)no1 (stereo unspecified)
- Efficacy [1]: 94%
- EC50 [2]: 4000 nM

SMILES: O=C(O)CCc1ccc(OCc2nc(-c3ccc(Cl)cc3)no2)cc1
- inhibition at 5 µM (CYP2D6 [4]): -5.8%
- EC50 [5]: > 10000 nM
- Papp A→B at 10 µM [6]: 2.1 ×10⁻⁶ cm/s
- inhibition at 5 µM (CYP1A2): 25.9%
- half-life at 2 µM [7]: 12.1 h
- EC50 [8]: > 10000 nM
- inhibition at 5 µM (CYP2C9 [9]): 16.2%
- inhibition at 5 µM (CYP3A4): 50.1%
- solubility kinetic [10]: 214 µM (≈ 76.8 µg/mL)
- EC50 [11]: > 10000 nM
- inhibition at 5 µM (CYP2C19 [12]): 31.6%
- Efficacy [1]: 84%
- EC50 [2]: 540 nM
- fraction unbound at 5 h, 1 µM [13]: 0.001

SMILES: O=C(O)CCc1ccc(OCc2nc(-c3ccc(F)cc3)no2)cc1
- Efficacy [1]: 66%
- EC50 [2]: 680 nM

SMILES: O=C(O)CCc1ccc(OCc2coc(-c3ccccc3)n2)cc1
- Efficacy [1]: 98%
- EC50 [2]: 700 nM
